Test results as given in article PMC2820545, “Mechanistic Characterization and Molecular Modeling of Hepatitis B Virus Polymerase Resistance to Entecavir” (PLoS ONE, 2010).
Several values for one entry are separate records, joined by “and”; a condition that tells them apart may be missing. Identical values can stand only once. Like-named read-outs stand apart in the source and are kept apart here.

Columns and labels:
[1] = biological target: T1, LVDr + M250V HBV polymerase (Hepatitis B virus genotype D subtype ayw, UniProt P03156, L515M/M539V/M585V); assay: In vitro HBV polymerase assay (endogenous polymerase assay with nucleocapsids); format: biochemical; details: for IC50: In vitro polymerase
T1 construct: intracellular HBV nucleocapsids were isolated from HBV transfected HepG2 cells and used in endogenous polymerase assays; expressed in transfected cells; host or cells: HepG2 cells transfected with a mutated HBV expression plasmid
T1 sequence (P03156 whole entry L515M/M539V/M585V): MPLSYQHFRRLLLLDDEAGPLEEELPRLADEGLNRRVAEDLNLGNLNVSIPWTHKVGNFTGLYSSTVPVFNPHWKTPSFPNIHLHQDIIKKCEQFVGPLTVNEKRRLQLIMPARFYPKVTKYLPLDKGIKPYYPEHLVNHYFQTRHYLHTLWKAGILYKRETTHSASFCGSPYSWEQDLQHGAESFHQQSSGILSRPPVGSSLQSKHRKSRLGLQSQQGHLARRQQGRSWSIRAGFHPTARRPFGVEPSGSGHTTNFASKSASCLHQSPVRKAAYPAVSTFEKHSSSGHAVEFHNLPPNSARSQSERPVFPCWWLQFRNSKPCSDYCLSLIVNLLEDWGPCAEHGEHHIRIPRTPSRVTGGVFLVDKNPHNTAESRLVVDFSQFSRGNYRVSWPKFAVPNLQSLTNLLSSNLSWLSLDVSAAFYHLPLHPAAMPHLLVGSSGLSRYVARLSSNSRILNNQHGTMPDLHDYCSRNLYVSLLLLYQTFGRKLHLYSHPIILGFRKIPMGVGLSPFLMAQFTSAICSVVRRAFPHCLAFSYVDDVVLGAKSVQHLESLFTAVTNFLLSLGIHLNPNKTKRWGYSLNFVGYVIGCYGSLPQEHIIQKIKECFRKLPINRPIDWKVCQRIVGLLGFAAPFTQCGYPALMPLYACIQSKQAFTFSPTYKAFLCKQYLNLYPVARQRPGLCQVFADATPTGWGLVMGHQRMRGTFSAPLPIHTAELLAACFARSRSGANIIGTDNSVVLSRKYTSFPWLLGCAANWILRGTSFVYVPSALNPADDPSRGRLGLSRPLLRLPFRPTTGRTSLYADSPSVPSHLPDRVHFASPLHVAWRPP
From the text: (§1) To provide the data in Tables 1 & 2, intracellular HBV nucleocapsids were isolated from HBV transfected HepG2 cells and used in endogenous polymerase assays (EPA), exactly as previously described in detail. Essentially, clarified, detergent and nuclease-treated HBV-transfected cell lysates were centrifugally sedimented through a 25% wt/vol sucrose cushion. Sedimented nucleocapsids were used in polymerase reactions with [33P]-labeled dNTPs and TCA-precipitable radioactivity was used as an indication of the HBV polymerase activity, as described.
(§2) In order to increase the activity of the EPA reactions, we used nucleocapsids from cells treated with phosphonoformic acid (foscarnet, PFA; Sigma) during culture. […] PFA inhibits synthesis of all HBV DNA forms and both strands of HBV DNA, but not priming, and has a cell culture EC50 of approximately 5 mM for HBV [48].
(§3) The HBV polymerase dNTP Km values were determined from similar assays where the concentration of dNTP was serially diluted from 1000 nM to 0.3 nM. All other dNTPs were used at a fixed concentration equal to the highest test dNTP concentration with one-tenth of the TTP in the form of [α^33P] TTP (3000 Ci/mmol; PerkinElmer, Boston, MA). The apparent Km values were obtained from Lineweaver-Burke plots of the data generated by GraphPad PRISM™ software version 3.0 (San Diego, CA). The Ki values were calculated using the Cheng-Prusoff equation: Ki = IC50/(1+[S]/Km). The enzyme concentration within HBV nucleocapsid preparations was found by determining the level of covalently-linked HBV DNA using quantitative real-time PCR [9] and converting to genome equivalents [1 pg double stranded HBV DNA = 3×10^5 genome equivalents [34]]. The primers were positioned near the 5′ end of minus strand DNA in an attempt to measure all enzymatically active molecules.

[2] = biological target: T2, LVDr + S202G HBV polymerase (Hepatitis B virus genotype D subtype ayw, UniProt P03156, L515M/M539V/S537G); assay: as above; format: biochemical; details: for IC50: In vitro polymerase
T2 construct: intracellular HBV nucleocapsids were isolated from HBV transfected HepG2 cells and used in endogenous polymerase assays; expressed in transfected cells; host or cells: HepG2 cells transfected with a mutated HBV expression plasmid
T2 sequence (P03156 whole entry L515M/S537G/M539V): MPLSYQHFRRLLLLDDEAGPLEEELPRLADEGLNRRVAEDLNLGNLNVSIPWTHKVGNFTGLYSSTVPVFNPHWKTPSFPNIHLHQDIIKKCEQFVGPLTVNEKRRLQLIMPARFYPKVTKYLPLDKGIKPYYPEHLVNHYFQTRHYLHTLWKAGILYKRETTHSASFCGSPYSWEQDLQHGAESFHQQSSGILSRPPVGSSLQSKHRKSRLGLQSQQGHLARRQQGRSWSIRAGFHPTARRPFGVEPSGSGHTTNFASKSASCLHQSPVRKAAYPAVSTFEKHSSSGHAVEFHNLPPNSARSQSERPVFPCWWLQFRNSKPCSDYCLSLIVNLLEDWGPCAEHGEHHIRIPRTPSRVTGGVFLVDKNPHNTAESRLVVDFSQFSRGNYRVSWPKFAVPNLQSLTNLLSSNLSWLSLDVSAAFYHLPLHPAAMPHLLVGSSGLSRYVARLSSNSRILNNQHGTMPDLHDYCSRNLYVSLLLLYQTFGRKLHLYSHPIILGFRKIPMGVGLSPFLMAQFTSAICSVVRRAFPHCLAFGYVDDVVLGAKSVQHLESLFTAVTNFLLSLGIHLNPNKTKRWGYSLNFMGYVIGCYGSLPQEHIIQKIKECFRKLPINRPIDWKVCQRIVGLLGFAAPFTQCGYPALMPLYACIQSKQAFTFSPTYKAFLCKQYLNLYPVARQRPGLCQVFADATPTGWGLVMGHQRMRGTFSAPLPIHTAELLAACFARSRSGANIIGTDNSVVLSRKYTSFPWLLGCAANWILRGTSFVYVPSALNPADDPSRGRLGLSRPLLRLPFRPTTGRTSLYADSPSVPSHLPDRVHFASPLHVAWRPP
From the text: as §1, §2, §3

[3] = biological target: T3, LVDr + T184G + S202I HBV polymerase (Hepatitis B virus genotype D subtype ayw, UniProt P03156, L515M/M539V/S537I/T519G); assay: as above; format: biochemical; details: for IC50: In vitro polymerase
T3 construct: intracellular HBV nucleocapsids were isolated from HBV transfected HepG2 cells and used in endogenous polymerase assays; expressed in transfected cells; host or cells: HepG2 cells transfected with an HBV expression plasmid
T3 sequence (P03156 whole entry L515M/T519G/S537I/M539V): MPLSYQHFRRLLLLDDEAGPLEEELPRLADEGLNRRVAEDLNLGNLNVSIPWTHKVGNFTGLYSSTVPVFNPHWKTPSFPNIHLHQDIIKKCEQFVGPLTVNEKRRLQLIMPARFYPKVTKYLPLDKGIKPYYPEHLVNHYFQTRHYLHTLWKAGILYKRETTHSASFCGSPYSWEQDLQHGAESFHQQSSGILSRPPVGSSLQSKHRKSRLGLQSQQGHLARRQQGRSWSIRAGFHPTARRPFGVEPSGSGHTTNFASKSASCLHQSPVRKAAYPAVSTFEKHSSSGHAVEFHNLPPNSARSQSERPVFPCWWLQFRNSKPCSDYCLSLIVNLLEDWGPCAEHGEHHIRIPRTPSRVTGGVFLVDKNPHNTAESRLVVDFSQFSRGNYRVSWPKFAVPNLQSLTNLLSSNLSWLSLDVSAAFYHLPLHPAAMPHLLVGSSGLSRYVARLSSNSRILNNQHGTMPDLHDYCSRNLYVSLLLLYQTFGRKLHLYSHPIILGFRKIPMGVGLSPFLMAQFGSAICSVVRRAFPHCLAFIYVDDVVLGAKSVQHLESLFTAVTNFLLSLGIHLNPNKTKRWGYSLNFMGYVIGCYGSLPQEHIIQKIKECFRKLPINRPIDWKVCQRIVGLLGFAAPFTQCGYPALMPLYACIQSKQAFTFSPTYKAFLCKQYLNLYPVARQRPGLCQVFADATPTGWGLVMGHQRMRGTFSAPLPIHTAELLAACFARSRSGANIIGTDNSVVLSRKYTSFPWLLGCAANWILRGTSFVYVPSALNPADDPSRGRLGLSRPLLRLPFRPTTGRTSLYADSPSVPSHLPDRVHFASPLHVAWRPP
From the text: as §1, §2, §3

[4] = biological target: T4, LVDr + T184L HBV polymerase (Hepatitis B virus genotype D subtype ayw, UniProt P03156, L515M/M539V/T519L); assay: as above; format: biochemical
T4 construct: intracellular HBV nucleocapsids were isolated from HBV transfected HepG2 cells and used in endogenous polymerase assays; expressed in transfected cells; host or cells: HepG2 cells transfected with a mutated HBV expression plasmid
T4 sequence (P03156 whole entry L515M/T519L/M539V): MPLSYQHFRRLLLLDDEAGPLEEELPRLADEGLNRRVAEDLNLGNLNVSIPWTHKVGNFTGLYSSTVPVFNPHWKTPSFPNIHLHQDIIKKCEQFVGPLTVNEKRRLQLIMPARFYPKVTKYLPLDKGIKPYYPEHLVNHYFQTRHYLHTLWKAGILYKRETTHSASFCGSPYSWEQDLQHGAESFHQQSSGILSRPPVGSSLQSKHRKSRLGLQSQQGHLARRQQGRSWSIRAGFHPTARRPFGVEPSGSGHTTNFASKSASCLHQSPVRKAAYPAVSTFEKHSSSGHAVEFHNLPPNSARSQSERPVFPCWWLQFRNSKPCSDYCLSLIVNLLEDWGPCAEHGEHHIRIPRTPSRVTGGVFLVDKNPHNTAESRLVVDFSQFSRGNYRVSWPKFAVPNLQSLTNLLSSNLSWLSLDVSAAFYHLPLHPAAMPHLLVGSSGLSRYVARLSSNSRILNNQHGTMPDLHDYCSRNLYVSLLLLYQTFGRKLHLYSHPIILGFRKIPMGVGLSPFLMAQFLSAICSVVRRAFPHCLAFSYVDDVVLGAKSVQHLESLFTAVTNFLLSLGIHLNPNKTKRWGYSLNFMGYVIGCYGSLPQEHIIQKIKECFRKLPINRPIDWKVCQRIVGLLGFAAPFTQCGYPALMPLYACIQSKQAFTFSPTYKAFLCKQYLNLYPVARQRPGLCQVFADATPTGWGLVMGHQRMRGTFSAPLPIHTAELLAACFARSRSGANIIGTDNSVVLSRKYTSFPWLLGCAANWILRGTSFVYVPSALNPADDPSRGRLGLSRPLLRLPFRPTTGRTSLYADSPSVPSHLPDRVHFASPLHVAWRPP
From the text: as §1, §2, §3

[5] = biological target: T5, LVDr L180M + M204V HBV polymerase (Hepatitis B virus genotype D subtype ayw, UniProt P03156, L515M/M539V); assay: as above; format: biochemical; details: for IC50: In vitro polymerase, LVDr L180M + M204V
T5 construct: intracellular HBV nucleocapsids were isolated from HBV transfected HepG2 cells and used in endogenous polymerase assays; expressed in transfected cells; host or cells: HepG2 cells transfected with a mutated HBV expression plasmid
T5 sequence (P03156 whole entry L515M/M539V): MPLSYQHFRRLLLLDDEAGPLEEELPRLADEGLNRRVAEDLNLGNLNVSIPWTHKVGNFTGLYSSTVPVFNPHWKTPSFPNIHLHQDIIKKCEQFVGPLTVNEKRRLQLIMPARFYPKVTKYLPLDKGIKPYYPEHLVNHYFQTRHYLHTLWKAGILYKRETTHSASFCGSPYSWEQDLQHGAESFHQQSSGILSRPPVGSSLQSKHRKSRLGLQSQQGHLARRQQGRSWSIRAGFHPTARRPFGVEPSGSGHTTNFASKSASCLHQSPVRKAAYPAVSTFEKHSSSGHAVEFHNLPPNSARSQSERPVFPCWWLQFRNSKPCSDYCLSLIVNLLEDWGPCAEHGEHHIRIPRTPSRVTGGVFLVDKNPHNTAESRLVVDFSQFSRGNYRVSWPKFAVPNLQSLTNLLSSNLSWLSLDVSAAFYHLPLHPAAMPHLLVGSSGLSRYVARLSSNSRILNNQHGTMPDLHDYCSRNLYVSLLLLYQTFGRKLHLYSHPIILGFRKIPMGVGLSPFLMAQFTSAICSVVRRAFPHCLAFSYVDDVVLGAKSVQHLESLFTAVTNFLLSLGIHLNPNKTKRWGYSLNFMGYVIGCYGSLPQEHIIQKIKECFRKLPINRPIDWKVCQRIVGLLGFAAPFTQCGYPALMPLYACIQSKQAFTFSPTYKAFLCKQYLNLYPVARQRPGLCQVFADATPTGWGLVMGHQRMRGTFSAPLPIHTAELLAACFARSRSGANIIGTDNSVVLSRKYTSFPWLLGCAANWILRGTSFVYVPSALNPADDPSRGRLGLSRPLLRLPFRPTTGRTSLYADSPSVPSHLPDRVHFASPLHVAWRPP
From the text: as §1, §2, §3

Wildtype HBV polymerase = biological target: T6, Wildtype HBV polymerase (Hepatitis B virus genotype D subtype ayw, UniProt P03156); assay: as above; format: biochemical
T6 construct: intracellular HBV nucleocapsids were isolated from HBV transfected HepG2 cells and used in endogenous polymerase assays; expressed in transfected cells; host or cells: HepG2 cells transfected with pCMV-HBV
T6 sequence (P03156 whole entry): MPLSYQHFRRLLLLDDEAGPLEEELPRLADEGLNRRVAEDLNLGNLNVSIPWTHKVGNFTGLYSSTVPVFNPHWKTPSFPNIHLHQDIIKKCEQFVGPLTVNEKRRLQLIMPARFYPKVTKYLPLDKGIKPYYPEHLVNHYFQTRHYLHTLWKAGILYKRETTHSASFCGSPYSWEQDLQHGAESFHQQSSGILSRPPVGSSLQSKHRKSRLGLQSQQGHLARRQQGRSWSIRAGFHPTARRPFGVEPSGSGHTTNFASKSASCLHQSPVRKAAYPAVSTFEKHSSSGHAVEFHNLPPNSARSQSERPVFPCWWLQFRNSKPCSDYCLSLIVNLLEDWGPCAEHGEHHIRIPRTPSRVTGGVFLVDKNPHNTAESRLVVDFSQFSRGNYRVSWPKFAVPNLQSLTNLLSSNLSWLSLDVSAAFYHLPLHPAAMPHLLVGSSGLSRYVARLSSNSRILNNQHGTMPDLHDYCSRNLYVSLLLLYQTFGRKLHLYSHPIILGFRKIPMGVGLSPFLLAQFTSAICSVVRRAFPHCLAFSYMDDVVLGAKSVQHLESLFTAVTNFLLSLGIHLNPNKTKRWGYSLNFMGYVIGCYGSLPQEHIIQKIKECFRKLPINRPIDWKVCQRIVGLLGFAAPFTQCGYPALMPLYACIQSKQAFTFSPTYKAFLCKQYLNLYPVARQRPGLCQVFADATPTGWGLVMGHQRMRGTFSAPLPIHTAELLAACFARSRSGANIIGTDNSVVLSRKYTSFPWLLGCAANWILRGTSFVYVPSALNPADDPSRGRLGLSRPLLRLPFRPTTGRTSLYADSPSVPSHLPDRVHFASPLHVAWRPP
From the text: as §1, §2, §3

[6] = biological target: ETVr HBV polymerases (ETVr signature substitutions in a LVDr background); assay: In vitro HBV polymerase assay, ETVr enzymes as a group; format: biochemical, hepatitis B virus
From the text: as §1, §2, §3

Wildtype HBV = assay: HBV cell culture susceptibility (HBV-transfected HepG2 cells); format: cell-based; details: Hepatitis B virus, wildtype HBV in culture, read-out: LVD EC50
Protocol: (§4) HepG2 human hepatoma cells (American Type Culture Collection) were maintained as described. The laboratory clone of HBV was the genotype D ayw serotype clone kindly provided by Dr. Steven Goff in the plasmid pCMV-HBV [41]. Plasmids expressing HBV RT with resistance substitutions were prepared using QuikChange® site-directed mutagenesis (Stratagene, LaJolla, CA).
(§5) HepG2 cell culture susceptibility assays were performed in cells transfected with HBV expression plasmids and cultured in the presence of a titration of antiviral compounds, as described in detail elsewhere. The levels of replicated, released HBV virions was measured at day five through immunocapture of detergent released nucleocapsids with anti-HBV core Ab and quantification of encapsidated HBV DNA [5]. Data were plotted as percent inhibition and EC50 values calculated as the drug concentration where 50% inhibition of extracellular HBV occurred.

[7] = test system: singly M250V substituted HBV; assay: as above; format: cell-based, hepatitis B virus
From the text: The M250V substituted HBV RT in the absence of LVDr changes was constructed and tested for susceptibility to LVD, an obligate chain terminator which should not be impacted by the mechanism that could potentially affect ETV chain termination.
as §4, §5

HBV = test system: HBV; design: method as in PMID 7601429; details: read-out: cell culture EC50; cited from earlier work
[8] = test system: HBV clones with ETVr signature substitutions in a LVDr background; details: cited from earlier work
[9] = fold change from wildtype value, LVDr + M250V
[10] = fold change from wildtype value, LVDr + S202G
[11] = fold change from wildtype value, LVDr + T184G + S202I
[12] = fold change from wildtype value, LVDr + T184L
[13] = fold change from wildtype value, LVDr M204V+L180M
[14] = fold change from wildtype value, Wildtype (WT)

C=C1[C@H](COP(=O)(O)OP(=O)(O)OP(=O)(O)O)[C@@H](O)C[C@@H]1n1cnc2c(=O)[nH]c(N)nc21 [ETV-TP, ETV-triphosphate]
Ki/Km ([1]; ETV-TP Ki / dGTP Km ratio, LVDr + M250V): 52.7 | IC50 ([1]; LVDr + M250V, read-out: ETV-TP IC50, Average ± SD (Range)): 0.229 ± 0.0495 µM | Ki ([1]; calculated with Cheng-Prusoff equation, LVDr + M250V polymerase, read-out: Ki (ETV-TP)): 0.121 µM | Ki (Fold WT) [1, 9]: 303.0 fold | Ki/Km (Fold WT) [1, 9]: 658.8 fold | Ki/Km ([2]; ETV-TP Ki / dGTP Km ratio, LVDr + S202G): 69.9 | IC50 ([2]; LVDr + S202G, read-out: ETV-TP IC50, Average ± SD (Range)): 0.258 ± 0.0255 µM | Ki ([2]; calculated with Cheng-Prusoff equation, LVDr + S202G polymerase, read-out: Ki (ETV-TP)): 0.147 µM | Ki (Fold WT) [2, 10]: 366.8 fold | Ki/Km (Fold WT) [2, 10]: 873.8 fold | Ki/Km ([3]; ETV-TP Ki / dGTP Km ratio, LVDr + T184G + S202I): 221.6 | IC50 ([3]; LVDr + T184G + S202I, read-out: ETV-TP IC50, Average ± SD (Range)): 0.636 ± 0.019 µM | Ki ([3]; calculated with Cheng-Prusoff equation, LVDr + T184G + S202I polymerase, read-out: Ki (ETV-TP)): 0.155 µM | Ki (Fold WT) [3, 11]: 387.8 fold | Ki/Km (Fold WT) [3, 11]: 2770.0 fold | Ki/Km ([4]; ETV-TP Ki / dGTP Km ratio, LVDr + T184L): 118.2 | IC50 ([4]; In vitro polymerase, LVDr + T184L, read-out: ETV-TP IC50, Average ± SD (Range)): 0.373 ± 0.143 µM | Ki ([4]; calculated with Cheng-Prusoff equation, LVDr + T184L polymerase, read-out: Ki (ETV-TP)): 0.225 µM | Ki (Fold WT) [4, 12]: 561.3 fold | Ki/Km (Fold WT) [4, 12]: 1477.5 fold | Ki/Km ([5]; ETV-TP Ki / dGTP Km ratio, LVDr M204V+L180M): 3.5 | IC50 ([5]; read-out: ETV-TP IC50, Average ± SD (Range)): 0.0271 ± 0.0056 µM | Ki ([5]; calculated with Cheng-Prusoff equation, LVDr M204V+L180M polymerase, read-out: Ki (ETV-TP)): 0.0123 µM | Ki (Fold WT) [5, 13]: 30 fold and 30.8 fold | Ki/Km (Fold WT) [5, 13]: 43.8 fold | IC50 (Wildtype HBV polymerase; In vitro polymerase, Wildtype, read-out: ETV-TP IC50, Average ± SD (Range)): 0.0005 ± 0.0001 µM | Ki (Wildtype HBV polymerase; calculated with Cheng-Prusoff equation, Wildtype (WT) polymerase, read-out: Ki (ETV-TP)): 0.0004 µM | Ki (Fold WT) (Wildtype HBV polymerase; [14]): 1 fold | Ki/Km (Fold WT) (Wildtype HBV polymerase; [14]): 1 fold | Ki/dGTP Km ratio, change from the wildtype ([6]; ETVr enzymes): more than 600 fold | level of ETVr in vitro ([6]; ETVr signature substitutions in a LVDr background, in vitro polymerase): > 400 fold

Nc1ccn([C@@H]2CS[C@H](CO)O2)c(=O)n1 [LVD, lamivudine]
EC50 (Wildtype HBV): 0.794 µM | EC50 ([7]; Hepatitis B virus, HepG2, M250V HBV (no LVDr changes) in culture, read-out: LVD EC50): 0.116 µM | hypersensitivity to LVD in culture ([7]; {}): 7 fold

O=C(O)P(=O)(O)O [PFA, phosphonoformic acid]
EC50 (HBV): ~5000 µM

Nc1ncnc2c1ncn2CCOCP(=O)(O)O [adefovir]
susceptibility of ETVr HBV in cell culture [8]: does not show reduced susceptibility

Nc1nc2c(ncn2[C@H]2C[C@H](O)[C@@H](COP(=O)(O)OP(=O)(O)OP(=O)(O)O)O2)c(=O)[nH]1 [dGTP]
Km ([1]; apparent Km, LVDr + M250V polymerase, read-out: dGTP Km): 2.3 ± 0.5 nM | dGTP Km (Fold WT) [1, 9]: 2.2 fold | Km ([2]; apparent Km, LVDr + S202G polymerase, read-out: dGTP Km): 2.1 ± 0.1 nM | dGTP Km (Fold WT) [2, 10]: 2.4 fold | Km ([3]; apparent Km, LVDr + T184G + S202I polymerase, read-out: dGTP Km): 0.7 ± 0.1 nM | Km ([4]; apparent Km, LVDr + T184L polymerase, read-out: dGTP Km): 1.9 ± 0.6 nM | dGTP Km (Fold WT) [4, 12]: 2.6 fold | Km ([5]; apparent Km, LVDr M204V+L180M polymerase, read-out: dGTP Km): 3.5 ± 0.4 nM | Km (Wildtype HBV polymerase; apparent Km, Wildtype (WT) polymerase, read-out: dGTP Km): 5 ± 0.5 nM | dGTP Km (Fold WT) (Wildtype HBV polymerase; [14]): 1 fold | change of dGTP Km by ETVr changes ([6]; ETVr enzymes except the quadruple-substituted RT): 2.2- to 2.6 fold

Nc1nc2c(ncn2[C@H]2CC[C@@H](COP(=O)(O)OP(=O)(O)OP(=O)(O)O)O2)c(=O)[nH]1 [ddGTP, 2′,3′-dideoxyguanosine-5′-triphosphate]
IC50 ([1]; LVDr + M250V, read-out: ddGTP IC50, Average ± SD (Range)): 0.154 ± 0.0514 µM | IC50 ([2]; LVDr + S202G, read-out: ddGTP IC50, Average ± SD (Range)): 0.125 ± 0.0088 µM | IC50 ([3]; LVDr + T184G + S202I, read-out: ddGTP IC50, Average ± SD (Range)): 0.188 ± 0.0067 µM | IC50 ([5]; read-out: ddGTP IC50, Average ± SD (Range)): 0.138 ± 0.01 µM | IC50 (Wildtype HBV polymerase): 0.0876 µM | ddGTP IC50 of ETVr isolates relative to background ([6]; ETVr isolates, in vitro polymerase): approximately two-fold above background

C[C@H](Cn1cnc2c(N)ncnc21)OCP(=O)(O)O [tenofovir]
susceptibility of ETVr HBV in cell culture [8]: does not show reduced susceptibility
